Measurements reported in PMC8238916 (Nature chemical biology, 2021).
Blank lines part the entries; values can stand above or below the molecule they belong to.

What was measured:
TEX cells [1] = experiment: Western blot in TEX cells; assay type: cell-based, human; details: 4 days
TEX cells [2] = experiment: Gene expression; assay type: cell-based, human; details: 96 hours
TEX cells [3] = experiment: Cell viability assay; assay type: cell-based, human
[4] = biological target: T1, RING1B RING domain (residues 10-116) as it stands in RING1B-BMI1f (UniProt Q99496 10-116); experiment: crystal structure
T1 sequence: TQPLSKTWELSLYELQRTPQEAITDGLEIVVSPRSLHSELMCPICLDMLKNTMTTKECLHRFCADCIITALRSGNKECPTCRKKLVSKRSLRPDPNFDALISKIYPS

Molecule: COc1cc(Br)c(Nc2nc(-c3c(C)nc4ncccn34)cs2)c(Br)c1 [PTC209]
- H2Aub, BMI1 and H2A levels (TEX cells [1]): decreased H2Aub, reduced BMI1 level and, unexpectedly, reduced H2A levels
- C/EBPα and CD34 expression (TEX cells [2]): had no effect on C/EBPα and CD34 expression
- cytotoxicity compared with RB-3 (TEX cells [3]): more cytotoxic to TEX cells than RB-3

- binding result [4]: binds
B1: BMI1 RING domain (residues 1-104) as it stands in RING1B-BMI1f (domain or fragment)
chain: MHRTTRIKITELNPHLMCVLCGGYFIDATTIIECLHSFCKTCIVRYLETSKYCPICDVQVHKTRPLLNIRSDKTLQDIVYKLVPGLFKNEMKRRRDFYAAHPSA
